In paper PMC7534374 (Journal of Enzyme Inhibition and Medicinal Chemistry, 2020):

How the values were obtained:
[1] = target: T1, human glutathione reductase (hGR) (Homo sapiens, UniProt P00390); assay: GR activity assay; format: biochemical
T1 sequence (P00390 44-522): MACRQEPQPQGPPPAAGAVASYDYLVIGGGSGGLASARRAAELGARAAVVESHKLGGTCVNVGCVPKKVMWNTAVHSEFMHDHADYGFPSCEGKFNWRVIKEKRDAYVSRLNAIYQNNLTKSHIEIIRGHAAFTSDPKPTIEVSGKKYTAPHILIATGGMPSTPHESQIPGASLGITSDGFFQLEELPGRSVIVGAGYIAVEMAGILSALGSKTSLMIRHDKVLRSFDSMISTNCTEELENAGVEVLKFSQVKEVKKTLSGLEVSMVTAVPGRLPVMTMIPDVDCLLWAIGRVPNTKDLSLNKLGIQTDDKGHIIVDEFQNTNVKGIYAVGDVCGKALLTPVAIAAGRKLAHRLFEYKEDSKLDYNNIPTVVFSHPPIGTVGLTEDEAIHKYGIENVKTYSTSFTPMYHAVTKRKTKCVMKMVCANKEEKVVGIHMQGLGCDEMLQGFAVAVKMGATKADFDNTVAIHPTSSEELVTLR

[2] = target: T2, yeast glutathione reductase (yGR) (Saccharomyces cerevisiae, UniProt P41921); assay: LC-MS/MS of covalent adduct; format: biochemical; details: read-out: Ki
T2 sequence (P41921 1-483): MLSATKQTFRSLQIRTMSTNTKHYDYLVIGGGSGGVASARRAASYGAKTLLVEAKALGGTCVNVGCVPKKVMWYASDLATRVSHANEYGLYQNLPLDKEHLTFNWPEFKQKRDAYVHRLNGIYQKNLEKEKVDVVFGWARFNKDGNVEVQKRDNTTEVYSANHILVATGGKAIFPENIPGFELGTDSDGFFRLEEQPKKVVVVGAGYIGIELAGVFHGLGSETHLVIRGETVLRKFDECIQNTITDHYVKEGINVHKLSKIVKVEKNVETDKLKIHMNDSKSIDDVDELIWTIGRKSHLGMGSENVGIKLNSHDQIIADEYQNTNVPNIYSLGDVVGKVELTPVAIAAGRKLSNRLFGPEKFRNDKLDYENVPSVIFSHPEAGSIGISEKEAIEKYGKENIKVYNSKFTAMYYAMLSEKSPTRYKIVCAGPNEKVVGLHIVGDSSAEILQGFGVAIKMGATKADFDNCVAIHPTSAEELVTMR

SMILES | GR activity assay (NADPH consumption at 340 nm) [1] | KI (inactivation) [2]
S=C=NCc1ccccc1 [BITC, Benzyl isothiocyanate] | BITC exerted comparable inhibitory effect against both of yeast and human GRs | 260 µM
S=C=NCCc1ccccc1 [PEITC, Phenethyl isothiocyanate] | both of BITC and PEITC inhibited yeast or human GR in a concentration-dependent manner | 
